Data published in patent US11633505B2, “Nuclear magnetic resonance diagnostic agent, and method for detecting or diagnosing state of cell, tissue or organ in subject using same” (National University Corporation Kumamoto University, priority 2012, dated 2023).

Tested on: Brain tumor (9 L gliosarcoma)
Experiment: MRI (7T, 2D-RARE) T1/T2 measurement of excised subcutaneous tumor after ALA administration
Conditions: for Average T1 value / Average T2 value: ROI in excised tumor portion, ALA 100 mg/kg, 3 hours after administration, 7T-MRI, mean ± standard deviation

NCC(=O)CCC(=O)O [ALA, 5-aminolevulinic acid]
Average T1 value (First average): 2004 ± 73 ms | Average T2 value (First average): 146 ± 22 ms | Average T1 value (Second average): 2188 ± 210 ms | Average T2 value (Second average): 123 ± 5.7 ms | signal ratio (ALA administration group/control group) of T2 value (first measurement): approximately 1.4 times | signal ratio (ALA administration group/control group) of T2 value (second measurement): approximately 1.3 times
